Data as given in PubChem BioAssay (NCI).
Where “and” joins values, the source holds several entries; their conditions need not be identical. Identical values can stand only once.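 Values below derive from 48-hour exposures of cells grown in 96-well plates, with endpoints linearly interpolated between the two concentrations bracketing the appropriate inhibition level. GI50 is the concentration that inhibits growth by half. TGI is the concentration that stops growth completely.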 *1 amine or outer side, *2 acyl side, *3 side chain or, on linkers, in order; H or OH if unused. Where a SMILES comes first, the peptide text is derived from it. Bridges are numbered along the chain shown (N, C = ends). [ ]: non-standard residue; d: D form. ξ: configuration not given here. X4 = CCC(C)C(N[*:1])C(O)CC(=O)O[C@H](C(=O)C(C)C(=O)[*:2])C(C)C; NMeY = CN[C@@H](Cc1ccc(O)cc1)C(=O)O; X9 = O=C([C@@H]1CC(O)CN1[*:1])[*:2]; ξNMeL = CNC(CC(C)C)C(=O)O; ξT = CC(O)C(N)C(=O)O

Columns and labels:
Test in all cases: growth of human tumour cells (NCI), 48 h
[1] = tested on: HCT-116 colon
[2] = tested on: OVCAR-3 ovarian
[3] = tested on: HCT-15 colon
[4] = tested on: OVCAR-8 ovarian
[5] = tested on: MOLT-4 leukemia
[6] = tested on: RPMI-8226 leukemia
[7] = tested on: LOX IMVI melanoma
[8] = tested on: SF-295 CNS
[9] = tested on: TK-10 renal
[10] = tested on: NCI-H226 lung

Structure (SMILES) | GI50 [1] | TGI [1] | GI50 [2] | TGI [2] | GI50 [3] | TGI [3] | GI50 [4] | TGI [4] | GI50 [5] | TGI [5] | GI50 [6] | TGI [6] | GI50 [7] | TGI [7] | GI50 [8] | TGI [8] | GI50 [9] | TGI [9] | TGI [10] | GI50 [10]
COc1ccc(C2=NNC(c3ccc(-c4ccc(OC)cc4[N+](=O)[O-])o3)C2)cc1 (stereo unspecified) | 22.8 µM | > 100 µM | 21 µM | 62.2 µM | 31 µM | > 100 µM | 21.2 µM | 75.5 µM | 31 µM | > 100 µM | 36.8 µM | > 100 µM | 41.9 µM | > 100 µM | 29.5 µM | > 100 µM | 14.8 µM | 46.3 µM |  | 
C=CCOc1cc2c(cc1C(C)c1ccc(OC)cc1)OCO2 (stereo unspecified) |  | > 47.9 µM |  |  |  | > 100 µM |  | 5.97 µM |  | > 40.6 µM |  | > 74.4 µM |  | > 83.9 µM |  | 0.817 µM |  | > 100 µM | 40.2 µM | 
COc1ccc2[nH]c3c(cnn4cnnc34)c2c1 |  |  |  | > 100 µM |  | > 100 µM |  | > 100 µM |  | > 100 µM |  | > 100 µM |  | > 100 µM |  | > 100 µM |  | > 100 µM |  | 
Cc1ccc2sc3cc(=O)cc(C)c-3nc2c1 |  | > 100 µM |  | > 100 µM |  | > 100 µM |  | > 100 µM |  | > 100 µM |  |  |  |  |  | > 100 µM |  | > 100 µM | > 100 µM | 
CCCOc1ccc(/C=C\c2cc(OC)c(OC)c(OC)c2)cc1 |  | > 100 µM |  | > 100 µM |  | > 100 µM |  | > 100 µM |  |  |  | > 100 µM |  | > 100 µM |  | > 100 µM |  | > 100 µM | > 100 µM | 
CCCCCCn1c(-c2ccc(C(=O)O/N=C(\N)c3ccc(OC)cc3)cc2)nc(-c2ccccc2)c1-c1ccccc1 | 1.4 µM | 2.89 µM |  |  | 1.25 µM | 2.87 µM | 2.21 µM | 6.47 µM | 1.41 µM | 4.08 µM | 1.42 µM | 3.9 µM | 0.186 µM | 0.341 µM | 1.61 µM | 3.07 µM | 1.72 µM | 3.31 µM |  | 
CCC(C)C1NC(=O)C(NC(=O)C(CC(C)C)N(C)C(=O)[C@@H]2CC(O)CN2)C(C)OC(=O)[C@H](Cc2ccc(OC)cc2)N(C)C(=O)[C@@H]2CCCN2C(=O)[C@H](CC(C)C)NC(=O)C(C)C(=O)[C@H](C(C)C)OC(=O)CC1O (stereo partly specified) (H-[X9][ξNMeL][ξT][X4]LP[NMeY](Me); ester 3-C) |  |  | 0.0166 µM | 0.11 µM and 0.295 µM | 0.147 µM | 8.57 µM | 0.0238 µM | 0.759 µM and 1.06 µM |  | 0.0426 µM and 0.0387 µM | 0.0103 µM |  |  | 0.0294 µM and 0.101 µM | 0.0166 µM | 0.286 µM and 0.304 µM | 0.0873 µM | 1.25 µM and 7.31 µM | 0.0804 µM and 0.355 µM | 0.0302 µM
Cc1cc2c(cn1)C(=O)OCC2 |  | > 100 µM |  | > 100 µM |  |  |  | > 100 µM |  | > 100 µM |  | > 100 µM |  | > 100 µM |  | > 100 µM |  | > 100 µM | > 100 µM | 
Cc1ccccc1C(C#N)/C(=N/NC(=O)c1cc2ccccc2cc1O)C(=O)Nc1cccc(Cl)c1 (stereo unspecified) |  | > 100 µM |  | 92.7 µM |  | > 100 µM |  | > 100 µM |  | > 100 µM |  | > 100 µM |  |  |  | > 100 µM |  | > 100 µM | 78.4 µM | 
